{
  "source": "patent US20090317373A1",
  "about": "“Inhibition of the Anti-FVIII Immune Response” (Institut National De La Sante Et De La Recherche Medicale, priority 2005, published 2009)",
  "key": {"[1]": {"system": "DCs according to Example 1", "assay": "Internalization of demannosylated FVIII-BDD-FITC by DCs (FACS)", "type": "cell-based, human", "experimental": "Finally, the inhibition of the internalization of demannosylated FVIII-BDD labelled with FITC was measured. FVIII-BDD conjugated to FITC and treated with EndoF1 (0.143 μM) or untreated is incubated with DCs according to Example 1 (4×10^5 cells/well of 100 μl) in X-VIVO medium without serum at 37° C. or at 4° C. Beforehand, the cells were preincubated, where appropriate, with mannan (1 mg/ml) for 30 min at 37° C. After incubation for 2 hours, the cells are washed and the mean intensities (mfi) are measured by FACS. The internalization of FVIII-BDD is expressed with respect to the calculated mfi in the presence of untreated FVIII alone (cf. FIG. 8)."}, "FVIII": {"molecular_target": "FVIII (Homo sapiens, UniProt P00451)", "sequence (P00451 20-1667 limits assumed)": "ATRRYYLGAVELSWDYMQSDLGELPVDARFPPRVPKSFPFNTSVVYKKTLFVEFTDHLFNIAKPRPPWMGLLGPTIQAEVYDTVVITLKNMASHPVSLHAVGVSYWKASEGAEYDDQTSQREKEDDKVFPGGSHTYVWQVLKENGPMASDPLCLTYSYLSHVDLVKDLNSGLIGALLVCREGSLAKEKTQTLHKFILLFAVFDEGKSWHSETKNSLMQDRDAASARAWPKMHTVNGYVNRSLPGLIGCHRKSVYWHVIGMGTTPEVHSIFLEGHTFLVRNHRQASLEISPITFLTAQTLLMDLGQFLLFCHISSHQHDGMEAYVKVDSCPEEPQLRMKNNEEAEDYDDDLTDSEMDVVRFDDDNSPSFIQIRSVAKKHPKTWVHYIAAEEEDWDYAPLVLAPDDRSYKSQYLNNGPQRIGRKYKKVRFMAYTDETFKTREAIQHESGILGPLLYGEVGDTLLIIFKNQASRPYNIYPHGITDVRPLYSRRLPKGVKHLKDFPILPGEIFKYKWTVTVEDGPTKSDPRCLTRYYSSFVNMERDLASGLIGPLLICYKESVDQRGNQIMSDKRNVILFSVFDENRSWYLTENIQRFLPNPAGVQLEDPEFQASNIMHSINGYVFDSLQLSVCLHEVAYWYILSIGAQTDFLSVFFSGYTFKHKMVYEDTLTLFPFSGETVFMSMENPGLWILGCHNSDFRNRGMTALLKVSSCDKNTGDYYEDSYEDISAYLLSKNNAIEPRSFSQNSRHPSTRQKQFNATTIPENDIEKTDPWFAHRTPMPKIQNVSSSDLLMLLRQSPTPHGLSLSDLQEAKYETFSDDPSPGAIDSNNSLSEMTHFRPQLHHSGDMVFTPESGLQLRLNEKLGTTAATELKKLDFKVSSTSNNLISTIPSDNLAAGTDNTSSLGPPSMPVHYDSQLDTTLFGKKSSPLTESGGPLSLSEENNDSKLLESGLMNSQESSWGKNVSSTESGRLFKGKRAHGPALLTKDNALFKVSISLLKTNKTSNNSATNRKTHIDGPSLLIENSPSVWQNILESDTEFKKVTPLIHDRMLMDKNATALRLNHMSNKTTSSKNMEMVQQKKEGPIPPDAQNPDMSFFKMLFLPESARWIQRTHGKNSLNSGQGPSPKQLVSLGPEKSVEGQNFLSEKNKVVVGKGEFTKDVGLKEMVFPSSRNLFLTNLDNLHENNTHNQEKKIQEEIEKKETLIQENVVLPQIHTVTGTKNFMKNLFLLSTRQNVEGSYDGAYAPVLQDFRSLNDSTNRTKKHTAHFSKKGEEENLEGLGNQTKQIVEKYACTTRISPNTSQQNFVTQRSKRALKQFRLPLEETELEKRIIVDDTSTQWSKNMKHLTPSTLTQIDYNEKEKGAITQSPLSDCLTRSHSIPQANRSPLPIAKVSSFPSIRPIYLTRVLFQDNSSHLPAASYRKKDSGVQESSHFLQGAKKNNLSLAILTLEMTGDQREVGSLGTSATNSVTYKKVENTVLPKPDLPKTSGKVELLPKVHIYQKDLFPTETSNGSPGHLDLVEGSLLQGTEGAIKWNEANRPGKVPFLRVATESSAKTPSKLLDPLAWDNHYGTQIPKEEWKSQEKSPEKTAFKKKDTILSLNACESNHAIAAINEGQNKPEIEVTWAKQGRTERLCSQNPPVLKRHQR", "sequence (P00451 1668-2351 limits assumed)": "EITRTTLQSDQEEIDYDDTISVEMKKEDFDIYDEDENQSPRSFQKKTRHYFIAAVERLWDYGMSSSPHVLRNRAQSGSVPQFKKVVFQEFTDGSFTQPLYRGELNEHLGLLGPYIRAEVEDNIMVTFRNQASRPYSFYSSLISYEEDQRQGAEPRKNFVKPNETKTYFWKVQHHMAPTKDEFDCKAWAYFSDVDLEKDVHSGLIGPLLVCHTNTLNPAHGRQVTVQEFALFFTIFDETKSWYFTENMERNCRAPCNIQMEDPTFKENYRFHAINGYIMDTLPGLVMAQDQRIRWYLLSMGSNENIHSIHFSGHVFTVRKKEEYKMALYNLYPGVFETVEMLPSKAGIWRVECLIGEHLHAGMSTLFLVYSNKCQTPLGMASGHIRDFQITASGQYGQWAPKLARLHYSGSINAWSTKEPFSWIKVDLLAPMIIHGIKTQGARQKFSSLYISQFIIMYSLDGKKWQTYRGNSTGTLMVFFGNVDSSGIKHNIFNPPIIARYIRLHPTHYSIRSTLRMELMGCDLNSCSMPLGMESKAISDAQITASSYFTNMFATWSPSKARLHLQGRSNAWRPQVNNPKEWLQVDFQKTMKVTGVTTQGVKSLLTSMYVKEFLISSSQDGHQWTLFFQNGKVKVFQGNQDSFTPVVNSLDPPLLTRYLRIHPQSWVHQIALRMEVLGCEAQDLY", "assay": "One-stage clotting test, residual FVIII activity in normal human plasma", "type": "biochemical", "settings": "normal human plasma incubated with mannan 2 hours at 37° C.; FIG. 5a", "experimental": "Normal human plasma was incubated with an identical volume of mannan ([…]) for 2 hours at 37° C. The residual FVIII activity was measured in a one-stage clotting test using human placental […] as an activator (Dade Behring Marburg GmbH, Marburg, Germany) and FVIII-depleted plasma (Dade Behring Marburg GmbH, Marburg, Germany) as a substrate and a fibrin timer (Sysmex CA500, Dade Behring). The dilutions were performed in Owren-Koller buffer (Diagnostica Stago, Asnieres, France)."}, "[2]": {"system": "human DCs derived from monocytes", "assay": "In vitro internalization of fluorescent ligands by human DCs derived from monocytes (flow cytometry)", "type": "cell-based", "experimental": "DCs were prepared from monocytes as described previously (29) with a change in the culture media. Briefly, mononucleated cells were isolated from heparinized leukoplatelet layers (“buffy coats”) from healthy adult donors by adhesion on plastic cell culture dishes in RPMI 1640 medium supplemented with 10% human AB serum, glutamine and antibiotics for 60 minutes. Non-adhering cells were removed by 3 gentle washings with the medium. The adhering monocytes were cultured in X-VIVO 15 medium (Cambrex Bio Sciences, Paris, France) supplemented with 1% human AB serum and antibiotics and in the presence of 500 IU/ml of recombinant human interleukin-4 (rhIL-4), R&D Systems (Lille, France) and 1,000 IU/ml of recombinant human granulocyte macrophage colony-stimulating factor (rhGM-CSF), Immunotools (Friesoythe, Germany). Half of the medium, comprising all the supplements, was replaced every two days. After culture for 5 days, the non-adhering cells and those with little adhesion, corresponding to the fraction enriched in DC, were harvested, washed and used for subsequent experiments.\nWhole recombinant human FVIII (1,000 IU, Kogenate, Bayer) or B domain-deleted recombinant human FVIII (FVIII-BDD) (1,000 IU, Refacto, Wyeth) were solubilized in water and dialyzed against bicarbonate buffer (pH 9.2) containing CaCl2, 5 mM at 4° C., followed by coupling to fluorescein 5-isothiocyanate (isomer I, Sigma-Aldrich, Saint Quentin Fallavier, France) for 7-8 hours at 4° C. The labelled FVIII was then dialyzed against RPMI 1640 medium to remove non-coupled FITC. The FVIII-FITC was quantified by the Bradford method using bovine serum albumin as the standard.\nThe DCs obtained in Example 1 (0.4×10^5 cells/well of a 96-well plate with 100 μl/well) were incubated with various doses (0.029, 0.057, 0.143 and 0.358 μM) of fluorescent conjugated ligands (FVIII-FITC, BDD-FVIII-FITC) obtained in Example 2 in X-VIVO medium for 0, 15, 60 and 120 min at 4° C. or at 37° C. After the incubation period, the cells were washed with cold PBS and analyzed by flow cytometry. To investigate the involvement of receptors in the internalization, the cells were preincubated for 30 min at 37° C. with […] and 1 mg/ml of mannan (Sigma-Aldrich, Saint Quentin Fallavier, France) before the addition of ligands conjugated to fluorescein. In addition to FVIII-FITC and FVIII-BDD-FITC, human α2-macroglobulin-MA (α2M) conjugated to FITC from Biomac (Leipzig, Germany), dextran-FITC (molecular weight 40,000) from Molecular Probes (Leiden, The Netherlands) and Lucifer yellow (LY-CH) from Sigma-Aldrich were used. The investigation of the internalization of FVIII was also carried out in the presence of 20 μg/ml of anti-mannose receptor monoclonal antibody (PAM-1, isotype IgG1) or anti-DC-SIGN monoclonal antibody ((AZN-D1, isotype IgG1) or mouse IgGλ,k conjugated to PE-Cy (BD Pharmingen, France). To investigate whether DC-SIGN is involved in the endocytosis of FVIII, the B lymphocyte line HD-420 transformed by wild-type EBV and transfected with DC-SIGN or not transfected was incubated with various concentrations of FVIII-FITC (0, 0.036, 0.072 and 0.143 μM) for 2 hours in RPMI 1640 medium supplemented with 10% FCS (foetal calf serum) and antibiotics. The analysis was carried out as for the DCs."}, "[3]": {"settings": "in the presence of mannan, FIG. 2d"}},
  "data": [
    {"substance": "mannan", "values": [
      {"measurement": "further reduction of internalization of EndoF1-treated FVIII", "setting": "[1]; in the presence of mannan, results not shown", "value": 32, "unit": "%"},
      {"measurement": "inhibition of the internalization of FVIII-BDD", "setting": "[1]; with mannan (1 mg/ml), without deglycosylation, FIG. 8", "value": "45±7", "unit": "%"},
      {"measurement": "effect on proclotting activity of FVIII", "setting": "FVIII", "value": "does not block"},
      {"measurement": "neutralizing effect on the internalization of the antigen (dose dependence)", "setting": "[2]; FVIII, FVIII-BDD and dextran, FIG. 2e", "value": "proportional to the dose"},
      {"measurement": "inhibition of internalization of α2M", "setting": "[2]; excess of RAP or mannan, FIG. 2f", "value": "no effect"},
      {"measurement": "blocking of internalization of dextran", "setting": "[2]; [3]", "value": 80, "unit": "%"},
      {"measurement": "effect on internalization of Lucifer yellow (ly)", "setting": "[2]; [3]", "value": "not affected"},
      {"measurement": "inhibition of endocytosis of FVIII-BDD", "setting": "[2]; mannan 1 mg/ml, p<0.05", "value": "41.3±17.2", "unit": "%"},
      {"measurement": "inhibition of endocytosis of whole FVIII", "setting": "[2]; mannan 1 mg/ml, p<0.05", "value": "35.0±10.0", "unit": "%"},
      {"measurement": "saturation concentration for inhibition of internalization", "setting": "[2]; similar for FVIII, FVIII-BDD and dextran, FIG. 2e", "value": 100, "unit": "µg/mL"},
      {"measurement": "reduction of endocytosis of FVIII by the human DCs", "setting": "[2]; summary statement in Example 5", "value": "up to 40%"}
    ]}
  ]
}
